The test system of data set [1] is VEGF mRNA. In words: VEGF mRNA expression in cultured rat mesothelial cells (semiquantitative RT-PCR). Format: cell-based. The note with it: 3 hours. The protocol: Peritoneum was obtained from 6-week-old male CD (SD) IGS rats (Charles-River, Kanagawa, Japan). Mesothelial cells were isolated based on the method of Hjelle et al. (Hjelle J T et al., Perit Dial Int, 9: 341-347 (1989)) and cultured in Dulbecco's modified Eagle's medium (DMEM) containing 10% fetal bovine serum. The mesothelial cells at passage 7 to 10 were cultured for 3 hours in a CO2 incubator in the presence of various concentrations of glucose degradation products (glyoxal, methylglyoxal (Sigma, St. Louis, Mo.), or 3-deoxyglucosone (kindly provided from Fuji Memorial Research Institute, Otsuka Pharmaceutical Co., Kyoto, Japan). The expression of VEGF mRNA was analyzed by semiquantitative RT-PCR. Total RNA was isolated from the mesothelial cells using Rneasy Mini Kit (Qiagen, Germany). Five micrograms of the RNA was reverse-transcribed using oligo(dT)12-18 primers (Gibco BRL, Gaithersburg, Md.) with 200 units of RNase H-free reverse transcriptase (Superscript II: Gibco BRL) and PCR amplification was performed as described previously (Miyata T et al., J Clin Invest, 93: 521-528 (1994)). The sequences of the primers used for the amplification of rat VEGF were 5′-[…]-3′ (SEQ ID NO: 1) and 5′-[…]-3′ (SEQ ID NO: 2). The amplified product was 310 bp long. The primers used for the amplification of rat glyceraldehyde-3-phosphate dehydrogenase. (G3PDH) were 5′-[…]-3′ (SEQ ID NO: 3) and 5′-[…]-3′ (SEQ ID NO: 4) and amplified a 322 bp fragment. The G3PDH served as an internal RNA control to allow comparison of RNA levels among different specimens. […] PCR products resolved by electrophoresis in 1.5% agarose gel and stained with ethidium bromide were quantified by measuring the signal intensity with a quantification program (NIH image). […] Messenger RNA was determined in triplicate and the results were averaged for each experiment. […] The results were averaged and expressed as mean±S.D. The statistical significance was evaluated by analysis of variance (ANOVA). […]

The nature of data set [2]: trapping of glyoxal by albumin. To be noted: 0.1 M phosphate buffer pH 7.4, 37° C., 50 μl of 100 mg/ml. The protocol: (§1) A solution (50 μl) consisting of glyoxal, methylglyoxal, and 3-deoxyglucosone (1 mM each) was further mixed with 400 μl of 0.1 M phosphate buffer (pH 7.4), 50 μl of 100 mg/ml bovine serum albumin solution, and the resulting mixture was incubated at 37° C. After the incubation, glyoxal, methylglyoxal, and 3-deoxyglucosone were converted to quinoxaline derivatives by using o-phenylenediamine, and then the respective concentrations were determined by high performance liquid chromatography.

A short description of data set [3]: trapping of methylglyoxal by albumin. The note with it: 0.1 M phosphate buffer pH 7.4, 37° C., 50 μl of 100 mg/ml. The protocol:
as §1

Data set [4] is described as follows: trapping of methylglyoxal by guanidine, aminoguanidine and biguanide agents. The note with it: 0.1 M phosphate buffer pH 7.4, 37° C., agent 50 μl of 30 mM. The protocol:
(§2) A mixture (50 μl) of glyoxal, methylglyoxal, and 3-deoxyglucosone (1 mM each) was further mixed with 400 μl of 0.1 M phosphate buffer (pH 7.4), and each (50 μl; 30 mM) of guanidine, aminoguanidine, or a biguanide agent. The resulting mixture was incubated at 37° C. Biguanide agents used were metformin, buformin, and phenformin. After the incubation, glyoxal, methylglyoxal, and 3-deoxyglucosone were converted to quinoxaline derivatives by using o-phenylenediamine, and then the respective concentrations were determined by high performance liquid chromatography.

Data set [5] has as its system VEGF mRNA. Nature of the data set: VEGF mRNA expression and histology of peritoneal tissue of rats given daily intraperitoneal injections. Format: in vivo, rat. To be noted: daily intraperitoneal injection for 10 days. The protocol:
To further assess the biological effects of methylglyoxal on VEGF mRNA expression in the peritoneum in vivo, rats were given various amounts of methylglyoxal into their peritoneal cavity for 10 days. Six-week-old male CD (SD) IGS rats were given a daily intraperitoneal injection of 50 ml/kg of a saline solution containing various concentrations of methylglyoxal for 10 days. Peritoneum was isolated from the parietal walls and investigated for VEGF mRNA expression. Experiments were performed as the above-mentioned in vitro experiments for rat mesothelial cells. However, mRNA was extracted from peritoneal tissues with ISOGEN (Nippon Gene, Tokyo, Japan). In addition, PCR amplification was performed for 28 cycles for VEGF mRNA and for 16 cycles for G3PDH mRNA.

In a further data set the test system is VEGF protein. Nature of the data set: VEGF protein release into culture supernatant (ELISA). The note with it: human microvascular endothelial cells, 0, 200, 400 μM, 24 hours. Format: cell-based. The protocol:
The release of VEGF protein into the culture supernatant was measured by ELISA for […] cultured for 24 hours in the presence of various concentrations of methylglyoxal. Human microvascular endothelial cells were purchased from Kurabo (Osaka, Japan) and cultured in VEGF-depleted EGM-2 medium (Takara, Tokyo, Japan). The cells were incubated with methylglyoxal in the same manner as rat peritoneum mesothelial cells. The VEGF protein in the culture supernatant prepared in duplicate was quantified by enzyme-linked immunosorbent assay (ELISA) using a kit (Quantikine: R&D Systems, Minneapolis, USA) according to the attached manual. The experiment was repeated three times. The results were statistically analyzed as described above.
A general note: In an ELISA, binding on a coated surface is turned into a signal by an enzyme label.

For data set [6], the system named is VEGF mRNA. Nature of the data set: VEGF mRNA expression in human endothelial cells (RT-PCR). Format: cell-based. The note with it: 0 to 400 μM. The protocol: VEGF mRNA expression was then assessed in endothelial cells cultured in the presence of various concentrations (0 to 400 μM) of methylglyoxal. Experiments were performed as those for rat mesothelial cells. However, primers used for human VEGF amplification were 5′-[…]-3′ (SEQ ID NO: 5) and 5′-[…]-3′ (SEQ ID NO: 6). The amplified fragment was 271 bp long. The same primers were used for human and rat G3PDH amplifications.

The nature of data set [7]: amount of carbonyl compounds other than glucose in peritoneal dialysate (CAPD) effluent, 2,4-DNPH assay. More on the design: species or system human. To be noted: effluent, 0, 10, 50, 250 mM, unincubated and incubated (37° C. for 15 hours). The protocol:
The peritoneal dialysate effluent was recovered from the patient and filtered with a filter with a pore size of 0.45 μm. Aminoguanidine (Tokyo Kasei Kogyo Co.) was added to the fluid at a concentration of 0, 10, 50, or 250 mM to prepare a sample solution. An aliquot (1 ml) of the sample solution was added into a plastic tube with a screw cap, and the tube was incubated at 37° C. for 15 hours. The sample solutions were stored at −30° C. prior to the incubation.
Each of 400-μl aliquots of sample solutions was mixed with a 400-μl solution of 0.5 N hydrochloric acid containing 1.5 mM 2,4-DNPH (Wako Pure Chemical Industries, Ltd.), and then, the mixture was stirred at room temperature for 30 minutes to react the carbonyl compound with 2,4-DNPH. […] The aqueous layer was recovered and the absorbance thereof was measured at 360 nm in a spectrophotometric microplate reader (Nippon Molecular Devices Co.; SPECTRAmax250).
Aqueous solutions of various glucose concentrations were prepared and the amounts of carbonyl compounds derived from glucose were measured by the same method as described in (i); a calibration curve of glucose concentration vs. concentration of carbonyl compound was prepared based on this experiment.
Respective glucose concentrations of the samples were determined by using a glucose assay kit (Wako Pure Chemical Industries, Ltd.; Glucose CII-Test Wako). […]

A short description of data set [8]: generation of carbonyl compounds in peritoneal dialysate during heat sterilization (2,4-DNPH). To be noted: acidic and neutral pH, sterilization 121° C. The source says: (§3) Peritoneal dialysates contain a high concentration of glucose as an osmoregulatory agent (1.35-4.0 w/v %). Glucose is unstable to heating and undergoes degradation during heat sterilization or storage. Degradation products of glucose have been reported to include 5-hydroxymethylfurfural (5-HMF), levulinic acid, and acetaldehyde (Richard, J. U. et al., Fund. Appl. Toxic., 4: 843-853 (1984), Nilsson, C. B. et al., Perit. Dial. Int., 13: 208-213 (1993)). The inventors tested aminoguanidine for its inhibiting effect on the generation of carbonyl compounds during heat sterilization of a peritoneal dialysate, by monitoring the quantities of 5-HMF and carbonyl compounds. Since the degree of glucose degradation is affected by pH of the solution, two peritoneal dialysates of acidic pH (pH 5.3) and neutral pH (pH 7.0) were prepared to carry out the experiment. Sterilization temperature was 121° C.
Quantification of carbonyl compounds in the peritoneal dialysate was carried out in the same manner as described in Example 1 by measuring the absorbance after the reaction with 2,4-DNPH (Levine, R. L. et al., Methods Enzymol., 233: 346-357 (1994)). Sterilization temperature was 121° C.

A short description of data set [9]: generation of 5-HMF in peritoneal dialysate during heat sterilization (HPLC). To be noted: sterilization 121° C.
Source text: as §3
5-HMF was assayed by high performance liquid chromatography (SHIMADZU Co.; LC-10A) (Nilsson, C. B. et al., Perit. Dial. Int., 13: 208-213 (1993)).

Data set [10] can be described thus: generation of pentosidine on incubation of peritoneal dialysis effluent. More on the design: species or system human. To be noted: peritoneal dialysis effluent, 0, 1, 10, 100 mM, 37° C. The protocol:
An effluent from a peritoneal-dialysis patient, which had been kept overnight, was centrifuged, and the resulting supernatant was sterilized by filtration (pore size; 0.45 μm). Aminoguanidine (Tokyo Kasei Kogyo Co.) was added to the fluid at a final concentration of 0, 1, 10, or 100 mM. The mixture was incubated at 37° C. The incubation period was […] when assaying pentosidine, and 2 weeks when assaying protein carbonyl. The quantitative assay for pentosidine was performed using HPLC (SHIMADZU Co.; LC-10A) after the hydrolysis of proteins in 6 N HCl at 110° C. (T. Miyata et al., 1996, J. Am. Soc. Nephrol, 7:1198-1206; T. Miyata et al., 1996, Proc. Natl. Acad. Aci. USA, 93:2353-2358). The quantitative determination of protein carbonyl was carried out by measuring the absorbance (Nippon Molecular Devices Co.; SPECTRAmax 250) of hydrazone generated by the reaction of a carbonyl group after incubation with 2,4-dinitrophenylhydrazine (2,4-DNPH; Wako Pure Chemical Industries, Ltd.) (Levine, R. L. et al., Methods Enzymol., 233, 346-357 (1994)).

For data set [11] the following is noted: subcutaneously administered, rat; cited from earlier work.
For data set [12] the following is noted: subcutaneously administered, mouse; cited from earlier work.
Data set [13] in a line: trapping of 3-deoxyglucosone by guanidine, aminoguanidine and biguanide agents. To be noted: 0.1 M phosphate buffer pH 7.4, 37° C., agent 50 μl of 30 mM. The protocol:
as §2

“Also recorded” adds a separate entry of the source. Read-outs that look alike come from different tables or passages of the source.

Here are results for six compounds from US7297689B2, “Method for preparing peritoneal dialysate” (Tokai University Educational System, priority 1998, dated 2007).

`O=CC(=O)C[C@H](O)[C@H](O)CO` [3-deoxyglucosone]: in the data set with VEGF mRNA [1] (0 to 400 μM), the “VEGF mRNA expression” value was “neither glyoxal nor 3-deoxyglucosone modified VEGF expression”.

For the compound “Bovine serum albumin: bovine serum albumin solution, 100 mg/ml; SH group-containing protein”, the concentration of glyoxal entry in data set [2] is “markedly reducing the concentrations of glyoxal and methylglyoxal”. The concentration of methylglyoxal result in data set [3] was “markedly reducing the concentrations of glyoxal and methylglyoxal”.

For the compound `N=C(N)N` [Guanidine, guanidine], the concentration of methylglyoxal result in data set [4] is listed as “markedly reducing the concentration of methylglyoxal”.

With `CC(=O)C=O` [methylglyoxal], the “VEGF mRNA expression” value is recorded as “stimulated VEGF mRNA expression” with VEGF mRNA [1] (400 μM, P<0.0005) and “rose in a dose-dependent manner” in the data set on VEGF mRNA [6]. Further, the “peritoneal tissue on optical microscopy” value with VEGF mRNA [5] is “unaffected”. For the same compound, the “VEGF mRNA expression in parietal peritoneum” value with VEGF mRNA [5] (P<0.05) is on record as “increased significantly”. The “VEGF protein released into culture supernatant” value in the data set on VEGF protein is “dose-dependent increase of VEGF”.

For the compound `N=C(N)NN` [aminoguanidine], in data set [7], the “amounts of carbonyl compounds other than glucose” value was “decreased”. In addition, in data set [8], the “generation of carbonyl compounds” value is “effectively inhibited the generation of carbonyl compounds in a concentration-dependent manner”. The “generation of 5-HMF” value in [9] (peritoneal dialysate acidic pH (pH 5.3)) and in data set [9] (peritoneal dialysate neutral pH (pH 7.0)) was “effectively inhibited the generation of 5-HMF in a concentration-dependent manner” throughout. Further, in [10], the generation of pentosidine result is listed as “inhibit the generation of pentosidine in a concentration-dependent manner”. Further, the half-lethal dose was 1258 mg/kg in data set [11] and 963 mg/kg in data set [12]. In addition, the concentration of methylglyoxal entry in data set [4] is listed as “markedly reducing the concentration of methylglyoxal; also recorded: drastically reduced the concentration of methylglyoxal”. The “concentration of 3-deoxyglucosone” value in data set [13] was “markedly reducing the concentration of 3-deoxyglucosone”.

For `O=CC=O` [glyoxal], the “VEGF mRNA expression” value in the data set on VEGF mRNA [1] (0 to 400 μM) is “neither glyoxal nor 3-deoxyglucosone modified VEGF expression”.
